These are literature values, as cited in US6384081B2, “Treatment of diseases of the eye characterized by the formation of metalloproteinase” (priority 1998, dated 2002).

Like-named read-outs stand apart in the source and are kept apart here. A value given as a limit tells only on which side of the number the result lay.

In series [1] the test system is collagenase purified from culture medium of alkali-burned rabbit corneas.
The test system of series [2] is epithelial healing in the rabbit alkali-burn model. To be noted: for mean percentage of epithelial defects: at 14 days.
For series [3] the following is noted: rabbit eye, 7 mg/kg intravenously.

Regarding `O=C([O-])CC(O)(CC(=O)[O-])C(=O)[O-].[Na+].[Na+].[Na+]` [sodium citrate], in series [1] (excess Ca2+), the “reversal of inhibition by excess Ca2+” value is reported as “could be reversed by excess Ca2+”. Consider spiramycin, for which the intraocular penetration result (rabbit, in vivo) is recorded as “best results”.

With doxycycline hyclate, the results for the “mean percentage of epithelial defects” value in series [2] (1.5 mg/kg orally daily for 14 days) and in series [2] (5 mg/kg orally daily for 14 days) were 50.7% and 7.1%, respectively. Besides, in series [2] (5 mg/kg/day, systemically administered), the corneal reepithelialization result is “promotes corneal reepithelialization”. For `CCC[C@@H]1C[C@@H](C(=O)N[C@@H]([C@H]2O[C@H](SC)[C@H](O)[C@@H](O)[C@H]2O)[C@H](C)Cl)N(C)C1` [clindamycin], the intraocular penetration entry (sub-conjunctival, retrobulbar and intramuscular, one shot, healthy rabbit eye) is “best results”. As for `CCCC(NC(CC(C)C)C(=O)NC(Cc1ccccc1)C(=O)NC(C)C(N)=O)C(=O)O` (stereo not drawn) [CH3(CH2)2(DL)CH-(COOH)-Leu-Phe-Ala-NH2], in series [1] (substrate not stated, read-out: IC50), the IC50 – broadly, the concentration at which inhibition is half-maximal – is 25 µM. On to `CC(=O)N[C@@H](CS)C(=O)O` [N-acetylcysteine], for which the IC50 in series [1] (natural substrate (collagen), read-out: IC50) is under 10000 µM; in series [1] (synthetic substrate, read-out: IC50), 2700 µM. With `CC(C)CC(CS)C(=O)NC(Cc1ccccc1)C(=O)NC(C)C(N)=O` (stereo not drawn) [HSCH2(DL)CH[CH2 CH(CH3)2]CO-Phe-Ala-NH2], in series [1] (synthetic substrate Dnp-Pro-Leu-Gly-Leu-Trp-Ala-D-Arg-NH2, read-out: 50% inhibition (IC50)), the IC50 was about 0.01 µM.

Consider `CC(CN1CC(=O)NC(=O)C1)N1CC(=O)NC(=O)C1` (centres unmarked) [Razoxane], for which, in the series with TIMP, the TIMP production result is “stimulated TIMP production”. The collagenase production entry with collagenase is given as “inhibited collagenase production”. For the molecule `O=C1O[C@H]([C@@H](O)CO)C([O-])=C1O.[Na+]` [Sodium ascorbate], the “inhibition of collagenase-mediated hydrolysis” value in series [1] (either collagen or the synthetic substrate) is on record as “did not inhibit”. Turning to `C[C@H]1c2cccc(O)c2C(=O)C2=C(O)[C@]3(O)C(=O)C(C(N)=O)=C(O)[C@@H](N(C)C)[C@@H]3[C@@H](O)[C@@H]21` [doxycycline], in series [3], the “Doxycycline concentration in the cornea versus aqueous humor” value was “exceeded that in the aqueous humor”, the “Vitreous body doxycycline concentration” value was 0.3 microgram/g and the “penetrability into the tissues” value is listed as “good penetrability”. The “antibiotic concentration in all vascularized ocular structures” value in series [3] (long-lasting) is at least 1 microgram/g.
